Laboratory results as given in patent publication US12227895B2, “Odor reduction and bacterial control on a textile material” (Microban Products Company, priority 2019, dated 2025).
Where two headings read alike, the source gives them in different places.

Key:
bacteria = conditions: for efficacy after home launderings: after 25 home launderings (FIG. 3); for efficacy (AATCC TM100): salts only, zero home launderings, liquor pH not lowered (FIG. 1)
Kp = conditions: Polyester Fabric, Mathis JFO Exhaust
Protocol: High dye load samples are the most difficult to process using exhaustion dye techniques. A series of tests were run using PET (polyester) and polyspandex fabrics. In this test series the materials were tested in two different laboratories using container-style lab exhaust equipment. Alongside the treated samples, untreated fabrics were run for comparison.
The fabrics were tested as-made and after 25 home launderings (25 HL). Each home laundering was performed in a commercial front-load washing machine per AATCC Monograph M6 using Tide HE detergent.
Trials have been performed in a small Thiele exhaustion pilot unit, as well as in Mathis JFO pilot scale equipment, both of which use jets to forcibly impregnate the textile with the exhaust liquor.
Reductive Clears—Method A is 1% Na Hydrosulfite whereas Method B is 0.3% NaOH, 0.4% Na Hydrosulfite. “owg” is “on weight of goods”.

SMILES	efficacy after home launderings (bacteria)	efficacy (AATCC TM100) (bacteria)	further results
O=C(O)CC(O)(CC(=O)O)C(=O)O [Citric acid, citric acid]	not able to maintain efficacy	–	–
C/C=C/C=C/C(=O)[O-].[K+] [potassium sorbate, reference compound]	–	relatively low levels of efficacy	–
O=C([O-])c1ccccc1.[Na+] [sodium benzoate]	–	relatively low levels of efficacy	Percent reduction (Kp; 0 HL, sodium benzoate acidified with citric acid to pH<3.6, run as Example 4): 99.50%; Percent reduction (Kp; 25 HL, sodium benzoate acidified with citric acid to pH<3.6): 99.50%
C/C=C/C=C/C(=O)O [sorbic acid]	able to maintain efficacy following multiple washing cycles	–	efficacy after a reductive clear (bacteria; exhausted on polyester fabric, 0 HL (FIG. 4)): demonstrate efficacy after the reductive clear
O=C([O-])CC(O)(CC(=O)[O-])C(=O)[O-].[Na+].[Na+].[Na+] [trisodium citrate, reference compound]	–	relatively low levels of efficacy	–
